Earlier results, collected in paper PMC11508362, “Discovery of Novel Thiazole-Based SIRT2 Inhibitors as Anticancer Agents: Molecular Modeling, Chemical Synthesis and Biological Assays” (International Journal of Molecular Sciences, 2024).
Like-named read-outs stand apart in the source and are kept apart here.

Biological target: T1, SIRT2 (Homo sapiens, UniProt Q8IXJ6)
T1 sequence (Q8IXJ6 1-389): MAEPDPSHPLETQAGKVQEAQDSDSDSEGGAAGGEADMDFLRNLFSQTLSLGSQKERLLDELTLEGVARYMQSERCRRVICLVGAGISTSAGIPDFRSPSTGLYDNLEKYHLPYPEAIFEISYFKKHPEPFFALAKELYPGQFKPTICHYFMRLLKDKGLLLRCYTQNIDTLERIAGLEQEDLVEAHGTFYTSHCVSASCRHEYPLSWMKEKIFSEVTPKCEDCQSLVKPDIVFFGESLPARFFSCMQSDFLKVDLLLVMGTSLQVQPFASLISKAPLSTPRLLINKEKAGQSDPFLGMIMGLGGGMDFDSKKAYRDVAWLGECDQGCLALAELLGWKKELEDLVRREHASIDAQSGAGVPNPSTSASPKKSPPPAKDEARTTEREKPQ
Conditions: cited from earlier work

[1] = Table S1, ref [2] Schiedel et al., J. Med. Chem. 2016, read-out: IC50 of SIRT2 inhibition (Table S1)
[2] = Table S2, SIRT2 inhibition of SirReal2 analogues, read-out: IC50 (Table S2)
[3] = SirReal2 analogs, read-out: SIRT2 IC50

Structure (SMILES) | IC50 [1] | IC50 [2] | IC50 [3]
Cc1cc(C)nc(SCC(=O)Nc2ncc(Cc3cccc4ccc(Cl)cc34)s2)n1 [Compound 10] | 0.2 µM | 0.18 µM | –
Cc1cc(C)nc(SC(C)C(=O)Nc2ncc(Cc3cccc4ccccc34)s2)n1 (stereo not drawn) [Compound 11] | 9.8 µM | 9.77 µM | –
Cc1cc(C)nc(SC(C)C(=O)Nc2ncc(Cc3cccc4ccccc34)s2)n1 (stereo not drawn) [Compound 12] | 0.3 µM | 0.26 µM | –
Cc1cc(C)nc(SCC(=O)Nc2ncc(Cc3c(C)ccc4ccccc34)s2)n1 [Compound 13] | 0.3 µM | 0.31 µM | –
Cc1cc(C)nc(SCC(=O)Nc2ncc(Cc3cccc4ccc(Br)cc34)s2)n1 [Compound 14] | 0.2 µM | – | 0.21 µM
O=C(CSc1ncccn1)Nc1ncc(Cc2cccc3ccccc23)s1 [Compound 16] | 2.3 µM | 2.34 µM | –
CCc1cc(CC)nc(SCC(=O)Nc2ncc(Cc3cccc4ccccc34)s2)n1 [Compound 17] | 45.6 µM | – | –
Cc1nc(SCC(=O)Nc2ncc(Cc3cccc4ccccc34)s2)nc(C)c1C [Compound 18] | 15 µM | 15 µM | –
CCCc1cc(O)nc(SCC(=O)Nc2ncc(Cc3cccc4ccccc34)s2)n1 [Compound 20] | 127 µM | 127 µM | –
Cc1cc(C)nc(SCC(=O)Nc2nnc(C(F)(F)F)s2)n1 [Compound 21] | – | – | 503 µM
Cc1cc(C)nc(SCC(=O)Nc2nnc(Cc3ccc(Cl)cc3)s2)n1 [Compound 22] | 30.9 µM | – | –
Cc1cc(C)nc(SCC(=O)Nc2nnc(Cc3ccc(Br)cc3)s2)n1 [Compound 23] | 168 µM | – | –
Cc1cc(C)nc(SCC(=O)Nc2nnc(Cc3cccc4ccccc34)s2)n1 [Compound 24] | 1.9 µM | 1.89 µM | –
CCOc1ccc2nc(NC(=O)CSc3nc(C)cc(C)n3)sc2c1 [Compound 25] | 207 µM | 207 µM | –
